Test results reported in patent US12122761B2, “2-azaspiro[3.4]octane derivatives as M4 agonists” (NOVARTIS AG, priority 2019, dated 2024).
Read-outs that look alike come from different tables or passages of the source.

Assays:
Type in all cases: cell-based
[1] = target: T1, Cloned human M1 receptor (CHRM1) stably expressed in HEK293 cells (Homo sapiens, UniProt P11229); assay: CHRM1 Ca++ Flux Assay (agonist mode, FDSS 7000EX); conditions: for M1 FDSS PA: Percent Activity; for EC50: geometric mean if tested more than once
T1 construct: expressed in transfected cells; host or cells: HEK293
T1 sequence (P11229 1-460): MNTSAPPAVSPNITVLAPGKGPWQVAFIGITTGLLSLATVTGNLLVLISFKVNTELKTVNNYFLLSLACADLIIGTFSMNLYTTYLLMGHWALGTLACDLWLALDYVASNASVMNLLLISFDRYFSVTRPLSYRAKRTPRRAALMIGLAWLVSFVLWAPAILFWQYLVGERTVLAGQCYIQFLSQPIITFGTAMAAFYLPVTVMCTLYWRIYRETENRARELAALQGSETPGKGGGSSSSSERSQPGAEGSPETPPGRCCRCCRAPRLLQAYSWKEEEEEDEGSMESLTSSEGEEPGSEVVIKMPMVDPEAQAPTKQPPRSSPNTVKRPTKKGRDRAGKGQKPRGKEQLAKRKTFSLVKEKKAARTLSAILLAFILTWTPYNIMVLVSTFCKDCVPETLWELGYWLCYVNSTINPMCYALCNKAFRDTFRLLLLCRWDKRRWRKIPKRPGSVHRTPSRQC
Experimental: (§1) The above examples were characterized by measuring the intracellular mobilization of Ca++ ions caused by signaling events mediated by the receptor. The Intra-cellular Calcium flux levels were captured by the highly sensitive Ca++ indicator, Calcium Assay Kit (BD Biosciences, Catalog Number 640178). The fluorescent activity from all receptors were monitored by the fluorescent imager, FDSS 7000EX (Hamamatsu) over a span of 3 minutes.
Cloned human M1 receptor (CHRM1) was stably expressed in HEK293 cells and were grown and maintained in a monolayer culture with DMEM/High Glucose (Life Technologies) supplemented with 10% Fetal Bovine Serum, 1× Pen-Strep, and 0.5 mg/mL Geneticin in a humidified atmosphere (5% CO2) at 37° C. The cultures were grown to 90% confluency in T150 flasks (Corning) and washed with 1×DPBS and lifted with 0.05% Trypsin (Life Technologies). The cells were then spun (1K rpm, 3 minutes) and frozen using Recovery Cell Culture Freezing Media (Gibco Technologies). Cells were stored in liquid nitrogen and thawed a day before the assay.
Prior to the day of the assay, stable HEK293 M1 cells were thawed and plated on 384 well black walled clear bottom TC treated plates (Greiner Cat #781091) at 25K cells/well with DMEM/High Glucose supplemented with 10% FBS (Hyclone) Pen-Strep (Life Technologies) and kept overnight in a humidified atmosphere (5% CO2) at 37° C. The following day, cells were loaded with 20 uL Ca^++ dye (BD Biosciences) using Loading Buffer (HBSS +Ca/+Mg, 20 mM HEPES) and placed back in cell incubator for a minimum of 1 hour. The dye was replaced with 45 μL Assay Buffer (HBSS −Ca/−Mg, 20 mM HEPES) and kept at room temperature prior to running on cell imager. Compounds were prepared in Assay Buffer and 5 uL was added to the cells. The FDSS 7000EX (Hamamatsu) was used to acquire Ca++ traces for 3 minutes from cells treated with 11 point dose in triplicate in order to generate dose response curves in agonist mode. All compounds were serially diluted in DMSO then prepared in Assay Buffer for Ca^++ flux studies. The dose response curves were generated from the average of triplicate wells obtained from each data point and used a non-linear regression of four parameter dose response algorithm. The Percent Activity (PA) was measured to EC100 of Carbachol.

[2] = target: T2, human cloned CHRM5 receptor (M5_CHO) (Homo sapiens, UniProt P08912); assay: CHRM5 Ca++ Flux Assay (agonist mode, FDSS 7000EX); conditions: for EC50: agonist mode, geometric mean if tested more than once, read-out: M5 FDSS EC50
T2 construct: expressed in transfected cells; host or cells: CHO (M5_CHO)
T2 sequence (P08912 1-532): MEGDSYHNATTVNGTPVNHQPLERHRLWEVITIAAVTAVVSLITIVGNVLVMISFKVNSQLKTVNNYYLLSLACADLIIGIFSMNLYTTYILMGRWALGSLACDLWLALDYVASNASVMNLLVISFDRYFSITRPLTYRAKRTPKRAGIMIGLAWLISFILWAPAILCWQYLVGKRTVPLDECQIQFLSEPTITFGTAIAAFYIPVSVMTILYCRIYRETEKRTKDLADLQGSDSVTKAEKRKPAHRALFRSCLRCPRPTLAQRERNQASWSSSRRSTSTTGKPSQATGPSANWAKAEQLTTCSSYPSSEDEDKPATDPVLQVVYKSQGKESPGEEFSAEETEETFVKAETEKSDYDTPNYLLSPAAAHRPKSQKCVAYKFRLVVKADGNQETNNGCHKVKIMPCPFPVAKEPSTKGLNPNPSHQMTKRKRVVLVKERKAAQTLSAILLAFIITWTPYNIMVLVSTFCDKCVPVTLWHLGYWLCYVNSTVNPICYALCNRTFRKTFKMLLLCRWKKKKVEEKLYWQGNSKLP
Experimental: as §1
(§2) CHO-K1 cells stably expressing the human cloned CHRM3 receptor (M3_CHO cells) were grown and maintained in a monolayer culture with F12/HAM (Life Technologies) supplemented with 10% Fetal Bovine Serum, 1× Pen-Strep, and 0.4 mg/mL Geneticin in a humidified atmosphere (5% CO2) at 37° C. The cultures were grown to 80-9 0% confluency in T150 flasks (Corning) and washed with 1×DPBS and lifted with 0.05% Trypsin (Life Technologies). The cells were then spun (1K rpm, 3 minutes) and frozen using Recovery Cell Culture Freezing Media (Gibco Technologies). Cells were stored in liquid nitrogen and thawed a day before the assay. A similar procedure was used for cells stably expressing the human cloned CHRM5 receptor (M5_CHO).
(§3) Prior to the day of the assay, stable M3_CHO or M5_CHO cells were thawed and plated on Greiner 384 well black TC treated plates at 12K cells/well in F12/DMEM supplemented with 10% FBS (Hyclone) and kept overnight in a humidified atmosphere (5% CO2) at 37° C. The next day, cells were loaded with Ca^++ dye (BD Biosciences) using Loading Buffer (HBSS +Ca/+Mg, 20 mM HEPES, 2.5 mM Probenecid) and placed back in cell incubator for a minimum of 1 hour. After incubation, the dye was replaced with Assay Buffer (HBSS −Ca/−Mg, 20 mM HEPES, 2.5 mM Probenecid) and kept at room temperature in the dark before running on cell imager. The FDSS 7000EX (Hamamatsu) was used to acquire Ca^++ traces from cells treated with 11 point dose response of compounds in triplicate in order to generate dose response curves in agonist mode. All compounds were serially diluted in DMSO then prepared in Assay Buffer for Ca^++ flux studies. The dose response curves were generated from the average of triplicate wells obtained from each data point and used a non-linear regression of four parameter dose response algorithm. The Percent Activity (PA) was measured to EC100 of Carbachol.

[3] = target: T3, human cloned CHRM3 receptor (M3_CHO cells) (Homo sapiens, UniProt P20309); assay: CHRM3 Ca++ Flux Assay (agonist mode, FDSS 7000EX); conditions: for EC50: agonist mode, geometric mean if tested more than once, read-out: M3 FDSS EC50
T3 construct: expressed in transfected cells; host or cells: CHO-K1
T3 sequence (P20309 whole entry): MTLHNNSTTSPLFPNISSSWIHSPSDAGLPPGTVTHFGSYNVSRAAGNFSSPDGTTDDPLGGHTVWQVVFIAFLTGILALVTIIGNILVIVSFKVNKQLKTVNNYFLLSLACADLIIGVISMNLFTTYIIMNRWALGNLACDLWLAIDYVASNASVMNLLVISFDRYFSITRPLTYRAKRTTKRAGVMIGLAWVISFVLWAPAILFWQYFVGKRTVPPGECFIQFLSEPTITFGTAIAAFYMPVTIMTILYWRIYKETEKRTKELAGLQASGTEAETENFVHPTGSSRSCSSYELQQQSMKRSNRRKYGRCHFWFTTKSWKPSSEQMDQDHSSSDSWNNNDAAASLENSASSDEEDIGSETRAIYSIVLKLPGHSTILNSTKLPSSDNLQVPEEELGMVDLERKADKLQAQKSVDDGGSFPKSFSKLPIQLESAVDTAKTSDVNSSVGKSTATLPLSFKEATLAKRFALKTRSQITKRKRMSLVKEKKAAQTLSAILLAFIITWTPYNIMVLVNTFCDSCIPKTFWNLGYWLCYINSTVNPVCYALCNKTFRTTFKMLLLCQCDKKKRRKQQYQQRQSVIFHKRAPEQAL
Experimental: as §1, §2, §3

[4] = Percent Activity measured to EC100 of Carbachol
[5] = Percent Activity measured to EC100 of Carbachol, citrate salt

| M1 FDSS PA [1] | EC50 [1] | M5 FDSS PA [2, 4] | EC50 [2] | M3 FDSS PA [3, 4] | EC50 [3] | Emax ([1]; HEK293, Percent Activity, read-out: M1 FDSS PA) | Emax ([2]; Percent Activity measured to EC100 of Carbachol, read-out: M5 FDSS PA) | Emax ([3]; Percent Activity measured to EC100 of Carbachol, read-out: M3 FDSS PA) | SMILES | M5 FDSS PA [2, 5] | EC50 ([2]; citrate salt) |
| --- | --- | --- | --- | --- | --- | --- | --- | --- | --- | --- | --- |
| 23% | 0.092 µM | 0% | > 25 µM | 0% | > 25 µM |  |  |  | O=C(N1CC2(CC[C@@H](N3CCC(c4cc(F)ccc4C4(O)CCOCC4)CC3)C2)C1)C1(F)CC1 (single isomer, unassigned) [Example 9I, (R)-(6-(4-(5-fluoro-2-(4-hydroxytetrahydro-2H-pyran-4-yl)phenyl)piperidin-1-yl)-2-azaspiro[3.4]octan-2-yl)(1-fluorocyclopropyl)methanone or (S)-(6-(4-(5-fluoro-2-(4-hydroxytetrahydro-2H-pyran-4-yl)phenyl)piperidin-1-yl)-2-azaspiro[3.4]octan-2-yl)(1-fluorocyclopropyl)methanone] |  |  |
|  |  |  |  |  |  |  |  |  | O=C(C1COC1)N1CC2(CC[C@H](N3CCC(c4ccccc4OC(F)F)CC3)C2)C1.O=C(O)CC(O)(CC(=O)O)C(=O)O (single isomer, unassigned) [Example 8E, (S)-(6-(4-(2-(difluoromethoxy)phenyl)piperidin-1-yl)-2-azaspiro[3.4]octan-2-yl)(oxetan-3-yl)methanone or (R)-(6-(4-(2-(difluoromethoxy)phenyl)piperidin-1-yl)-2-azaspiro[3.4]octan-2-yl)(oxetan-3-yl)methanone citrate salt] | 1% | 2.16 µM |
| 0% | > 25 µM | 0% | > 25 µM | 0% | > 25 µM |  |  |  | Fc1ccc(OC2CC3(COC3)C2)c(C2CCN([C@@H]3CCC4(C3)CN(c3cncnc3)C4)CC2)c1 (single isomer, unassigned) [Example 10F, (R)-6-(4-(2-((2-oxaspiro[3.3]heptan-6-yl)oxy)-5-fluorophenyl)piperidin-1-yl)-2-(pyrimidin-5-yl)-2-azaspiro[3.4]octane or (S)-6-(4-(2-((2-oxaspiro[3.3]heptan-6-yl)oxy)-5-fluorophenyl)piperidin-1-yl)-2-(pyrimidin-5-yl)-2-azaspiro[3.4]octane] |  |  |
| 27% | 0.048 µM | 0% | > 25 µM | 0% | > 25 µM |  |  |  | O=C(N1CC2(CC[C@@H](N3CCC(c4cc(F)ccc4OC4CCOCC4)CC3)C2)C1)C1(F)CC1 (single isomer, unassigned) [Example 9C, (R)-(6-(4-(5-fluoro-2-((tetrahydro-2H-pyran-4-yl)oxy)phenyl)piperidin-1-yl)-2-azaspiro[3.4]octan-2-yl)(1-fluorocyclopropyl)methanone or (S)-(6-(4-(5-fluoro-2-((tetrahydro-2H-pyran-4-yl)oxy)phenyl)piperidin-1-yl)-2-azaspiro[3.4]octan-2-yl)(1-fluorocyclopropyl)methanone] |  |  |
| 3% | 2.69 µM | 0% | > 25 µM | 0% | > 25 µM |  |  |  | O=C(N1CC2(CC[C@@H](N3CCC(c4cc(F)ccc4C4(O)CCOCC4)CC3)C2)C1)C1(F)CC1 (single isomer, unassigned) [Example 9J, (R)-(6-(4-(5-fluoro-2-(4-hydroxytetrahydro-2H-pyran-4-yl)phenyl)piperidin-1-yl)-2-azaspiro[3.4]octan-2-yl)(1-fluorocyclopropyl)methanone or (S)-(6-(4-(5-fluoro-2-(4-hydroxytetrahydro-2H-pyran-4-yl)phenyl)piperidin-1-yl)-2-azaspiro[3.4]octan-2-yl)(1-fluorocyclopropyl)methanone] |  |  |
| 0% | > 25 µM | 0% | > 25 µM | 0% | > 25 µM |  |  |  | COc1ccccc1C1CCN([C@@H]2CCC3(C2)CN(c2ncns2)C3)CC1 (single isomer, unassigned) [Example 10R, (R)-5-(6-(4-(2-methoxyphenyl)piperidin-1-yl)-2-azaspiro[3.4]octan-2-yl)-1,2,4-thiadiazole or (S)-5-(6-(4-(2-methoxyphenyl)piperidin-1-yl)-2-azaspiro[3.4]octan-2-yl)-1,2,4-thiadiazole] |  |  |
|  | > 25 µM |  | > 25 µM |  | > 25 µM | 0% | 0% | 0% | COc1ccccc1C1CCN([C@@H]2CCC3(C2)CN(c2ncnc(C)n2)C3)CC1 [Example 5M, (R)-6-(4-(2-methoxyphenyl)piperidin-1-yl)-2-(4-methyl-1,3,5-triazin-2-yl)-2-azaspiro[3.4]octane] |  |  |
|  |  |  |  |  |  |  |  |  | O=C(C1COC1)N1CC2(CC[C@H](N3CCC(c4ccccc4OC(F)F)CC3)C2)C1.O=C(O)CC(O)(CC(=O)O)C(=O)O (single isomer, unassigned) [Example 8F, (S)-(6-(4-(2-(difluoromethoxy)phenyl)piperidin-1-yl)-2-azaspiro[3.4]octan-2-yl)(oxetan-3-yl)methanone or (R)-(6-(4-(2-(difluoromethoxy)phenyl)piperidin-1-yl)-2-azaspiro[3.4]octan-2-yl)(oxetan-3-yl)methanone citrate salt] | 0% | > 25 µM |
